Source: patent US6673812B1, “Preventives/remedies for glaucoma” (Senju Pharmaceutical Co., Ltd., priority 1998, dated 2004)

Test system: Japanese white rabbits
Experiment: Ophthalmic disorder caused by 8-time-a-day instillation to white rabbits: macroscopic observation of anterior segment of the eye
Type: in vivo, rabbit
Parameters: scale not given here
Details: mean of three eyes
Method: The test drugs, Compound A and Compound C, were each dissolved in the following base at a concentration of 0.125, 0.25, 0.5 and 1.0% and adjusted to pH 7 for use in this experiment. [table] Japanese white rabbits (body weight about 2 kg) purchased from Japan Laboratory Animals, INC. were used. These animals were bred in a breeding chamber set to temperature 23±3° C., humidity 55±10% and fed on limited amount of 100 g a day of a solid feed (Labo R Stock, Nihon-Nosan Kogyo K.K.). They were allowed free access to tap water. Instillation: Using a micropipet, each test drug (100 μl) was instilled into the right eye of each animal 8 times at one hour intervals. Into the left eye was instilled a base in the same manner. Observation: anterior segment of the eye was macroscopically observed before instillation and 30 min after 2nd, 4th, 6th and 8th administrations, according to the macroscopic criteria for ocular lesions as shown in Table 1 (Naruyuki Fukui, […] no Rinshou 4, 277-289, 1970). In addition, corneal staining spot was observed before instillation and after 8th administration. [table]

[1] = 0.125%, 30 min after 2nd instillation
[2] = 0.125%, 30 min after 4th instillation
[3] = 0.125%, 30 min after 6th instillation
[4] = 0.125%, 30 min after 8th instillation
[5] = 0.25%, 30 min after 2nd instillation
[6] = 0.25%, 30 min after 4th instillation
[7] = 0.25%, 30 min after 6th instillation
[8] = 0.25%, 30 min after 8th instillation
[9] = 0.5%, 30 min after 2nd instillation
[10] = 0.5%, 30 min after 4th instillation
[11] = 0.5%, 30 min after 6th instillation
[12] = 0.5%, 30 min after 8th instillation
[13] = 1.0%, 30 min after 2nd instillation
[14] = 1.0%, 30 min after 4th instillation
[15] = 1.0%, 30 min after 6th instillation
[16] = 1.0%, 30 min after 8th instillation

SMILES: C[C@@H](N)c1ccc(C(=O)Nc2ccncc2)cc1.Cl.Cl [Compound C, (R)-(+)-N-(4-pyridyl)-4-(1-aminoethyl)benzamide 2HCl]
- Score of ocular lesions: Conjunctiva Bulbar redness [1]: 0
- Score of ocular lesions: Conjunctiva Discharge [1]: 0
- Score of ocular lesions: Conjunctiva Nictitating membrane [1]: 0
- Score of ocular lesions: Conjunctiva Palpebral edema [1]: 0
- Score of ocular lesions: Conjunctiva Palpebral redness [1]: 0
- Score of ocular lesions: Cornea Area [1]: 0
- Score of ocular lesions: Cornea Degree [1]: 0
- Score of ocular lesions: Iris Values [1]: 0
- Score of ocular lesions: Total score [1]: 0
- Score of ocular lesions: Conjunctiva Bulbar redness [2]: 0.50
- Score of ocular lesions: Conjunctiva Discharge [2]: 0.17
- Score of ocular lesions: Conjunctiva Nictitating membrane [2]: 0.33
- Score of ocular lesions: Conjunctiva Palpebral edema [2]: 0
- Score of ocular lesions: Conjunctiva Palpebral redness [2]: 0
- Score of ocular lesions: Cornea Area [2]: 0
- Score of ocular lesions: Cornea Degree [2]: 0
- Score of ocular lesions: Iris Values [2]: 0
- Score of ocular lesions: Total score [2]: 0.83
- Score of ocular lesions: Conjunctiva Bulbar redness [3]: 0.17
- Score of ocular lesions: Conjunctiva Discharge [3]: 0.50
- Score of ocular lesions: Conjunctiva Nictitating membrane [3]: 0.33
- Score of ocular lesions: Conjunctiva Palpebral edema [3]: 0.17
- Score of ocular lesions: Conjunctiva Palpebral redness [3]: 0.17
- Score of ocular lesions: Cornea Area [3]: 0
- Score of ocular lesions: Cornea Degree [3]: 0
- Score of ocular lesions: Iris Values [3]: 0
- Score of ocular lesions: Total score [3]: 0.84
- Score of ocular lesions: Conjunctiva Bulbar redness [4]: 0.50
- Score of ocular lesions: Conjunctiva Discharge [4]: 0
- Score of ocular lesions: Conjunctiva Nictitating membrane [4]: 0.50
- Score of ocular lesions: Conjunctiva Palpebral edema [4]: 0.33
- Score of ocular lesions: Conjunctiva Palpebral redness [4]: 0.33
- Score of ocular lesions: Cornea Area [4]: 0
- Score of ocular lesions: Cornea Degree [4]: 0
- Score of ocular lesions: Iris Values [4]: 0
- Score of ocular lesions: Total score [4]: 1.66
- Score of ocular lesions: Conjunctiva Bulbar redness (0.125%, Before instillation): 0
- Score of ocular lesions: Conjunctiva Discharge (0.125%, Before instillation): 0
- Score of ocular lesions: Conjunctiva Nictitating membrane (0.125%, Before instillation): 0
- Score of ocular lesions: Conjunctiva Palpebral edema (0.125%, Before instillation): 0
- Score of ocular lesions: Conjunctiva Palpebral redness (0.125%, Before instillation): 0
- Score of ocular lesions: Cornea Area (0.125%, Before instillation): 0
- Score of ocular lesions: Cornea Degree (0.125%, Before instillation): 0
- Score of ocular lesions: Iris Values (0.125%, Before instillation): 0
- Score of ocular lesions: Total score (0.125%, Before instillation): 0
- Score of ocular lesions: Conjunctiva Bulbar redness [5]: 0.33
- Score of ocular lesions: Conjunctiva Discharge [5]: 0
- Score of ocular lesions: Conjunctiva Nictitating membrane [5]: 0.33
- Score of ocular lesions: Conjunctiva Palpebral edema [5]: 0
- Score of ocular lesions: Conjunctiva Palpebral redness [5]: 0
- Score of ocular lesions: Cornea Area [5]: 0
- Score of ocular lesions: Cornea Degree [5]: 0
- Score of ocular lesions: Iris Values [5]: 0
- Score of ocular lesions: Total score [5]: 0.66
- Score of ocular lesions: Conjunctiva Bulbar redness [6]: 0.33
- Score of ocular lesions: Conjunctiva Discharge [6]: 0
- Score of ocular lesions: Conjunctiva Nictitating membrane [6]: 0.50
- Score of ocular lesions: Conjunctiva Palpebral edema [6]: 0
- Score of ocular lesions: Conjunctiva Palpebral redness [6]: 0.33
- Score of ocular lesions: Cornea Area [6]: 0
- Score of ocular lesions: Cornea Degree [6]: 0
- Score of ocular lesions: Iris Values [6]: 0
- Score of ocular lesions: Total score [6]: 1.50
- Score of ocular lesions: Conjunctiva Bulbar redness [7]: 0.50
- Score of ocular lesions: Conjunctiva Discharge [7]: 0.67
- Score of ocular lesions: Conjunctiva Nictitating membrane [7]: 0.33
- Score of ocular lesions: Conjunctiva Palpebral edema [7]: 0.17
- Score of ocular lesions: Conjunctiva Palpebral redness [7]: 0.33
- Score of ocular lesions: Cornea Area [7]: 0
- Score of ocular lesions: Cornea Degree [7]: 0
- Score of ocular lesions: Iris Values [7]: 0
- Score of ocular lesions: Total score [7]: 2.83
- Score of ocular lesions: Conjunctiva Bulbar redness [8]: 0.67
- Score of ocular lesions: Conjunctiva Discharge [8]: 1.00
- Score of ocular lesions: Conjunctiva Nictitating membrane [8]: 1.33
- Score of ocular lesions: Conjunctiva Palpebral edema [8]: 0
- Score of ocular lesions: Conjunctiva Palpebral redness [8]: 0
- Score of ocular lesions: Cornea Area [8]: 0
- Score of ocular lesions: Cornea Degree [8]: 0
- Score of ocular lesions: Iris Values [8]: 0
- Score of ocular lesions: Total score [8]: 3.00
- Score of ocular lesions: Conjunctiva Bulbar redness (0.25%, Before instillation): 0
- Score of ocular lesions: Conjunctiva Discharge (0.25%, Before instillation): 0
- Score of ocular lesions: Conjunctiva Nictitating membrane (0.25%, Before instillation): 0
- Score of ocular lesions: Conjunctiva Palpebral edema (0.25%, Before instillation): 0
- Score of ocular lesions: Conjunctiva Palpebral redness (0.25%, Before instillation): 0
- Score of ocular lesions: Cornea Area (0.25%, Before instillation): 0
- Score of ocular lesions: Cornea Degree (0.25%, Before instillation): 0
- Score of ocular lesions: Iris Values (0.25%, Before instillation): 0
- Score of ocular lesions: Total score (0.25%, Before instillation): 0
- Score of ocular lesions: Conjunctiva Bulbar redness [9]: 0.50
- Score of ocular lesions: Conjunctiva Discharge [9]: 0
- Score of ocular lesions: Conjunctiva Nictitating membrane [9]: 0.50
- Score of ocular lesions: Conjunctiva Palpebral edema [9]: 0
- Score of ocular lesions: Conjunctiva Palpebral redness [9]: 0
- Score of ocular lesions: Cornea Area [9]: 0
- Score of ocular lesions: Cornea Degree [9]: 0
- Score of ocular lesions: Iris Values [9]: 0
- Score of ocular lesions: Total score [9]: 1.00
- Score of ocular lesions: Conjunctiva Bulbar redness [10]: 0.50
- Score of ocular lesions: Conjunctiva Discharge [10]: 0.17
- Score of ocular lesions: Conjunctiva Nictitating membrane [10]: 0.33
- Score of ocular lesions: Conjunctiva Palpebral edema [10]: 0.33
- Score of ocular lesions: Conjunctiva Palpebral redness [10]: 0.33
- Score of ocular lesions: Cornea Area [10]: 0
- Score of ocular lesions: Cornea Degree [10]: 0
- Score of ocular lesions: Iris Values [10]: 0.33
- Score of ocular lesions: Total score [10]: 1.99
- Score of ocular lesions: Conjunctiva Bulbar redness [11]: 0.67
- Score of ocular lesions: Conjunctiva Discharge [11]: 1.00
- Score of ocular lesions: Conjunctiva Nictitating membrane [11]: 1.00
- Score of ocular lesions: Conjunctiva Palpebral edema [11]: 0.33
- Score of ocular lesions: Conjunctiva Palpebral redness [11]: 0.33
- Score of ocular lesions: Cornea Area [11]: 0
- Score of ocular lesions: Cornea Degree [11]: 0
- Score of ocular lesions: Iris Values [11]: 0
- Score of ocular lesions: Total score [11]: 3.83
- Score of ocular lesions: Conjunctiva Bulbar redness [12]: 1.00
- Score of ocular lesions: Conjunctiva Discharge [12]: 2.00
- Score of ocular lesions: Conjunctiva Nictitating membrane [12]: 1.00
- Score of ocular lesions: Conjunctiva Palpebral edema [12]: 2.83
- Score of ocular lesions: Conjunctiva Palpebral redness [12]: 2.00
- Score of ocular lesions: Cornea Area [12]: 0
- Score of ocular lesions: Cornea Degree [12]: 0
- Score of ocular lesions: Iris Values [12]: 0.67
- Score of ocular lesions: Total score [12]: 9.50
- Score of ocular lesions: Conjunctiva Bulbar redness (0.5%, Before instillation): 0
- Score of ocular lesions: Conjunctiva Discharge (0.5%, Before instillation): 0
- Score of ocular lesions: Conjunctiva Nictitating membrane (0.5%, Before instillation): 0
- Score of ocular lesions: Conjunctiva Palpebral edema (0.5%, Before instillation): 0
- Score of ocular lesions: Conjunctiva Palpebral redness (0.5%, Before instillation): 0
- Score of ocular lesions: Cornea Area (0.5%, Before instillation): 0
- Score of ocular lesions: Cornea Degree (0.5%, Before instillation): 0
- Score of ocular lesions: Iris Values (0.5%, Before instillation): 0
- Score of ocular lesions: Total score (0.5%, Before instillation): 0
- Score of ocular lesions: Conjunctiva Bulbar redness [13]: 0.50
- Score of ocular lesions: Conjunctiva Discharge [13]: 0
- Score of ocular lesions: Conjunctiva Nictitating membrane [13]: 0.50
- Score of ocular lesions: Conjunctiva Palpebral edema [13]: 0
- Score of ocular lesions: Conjunctiva Palpebral redness [13]: 0.17
- Score of ocular lesions: Cornea Area [13]: 0
- Score of ocular lesions: Cornea Degree [13]: 0
- Score of ocular lesions: Iris Values [13]: 0
- Score of ocular lesions: Total score [13]: 1.17
- Score of ocular lesions: Conjunctiva Bulbar redness [14]: 0.50
- Score of ocular lesions: Conjunctiva Discharge [14]: 0
- Score of ocular lesions: Conjunctiva Nictitating membrane [14]: 0.50
- Score of ocular lesions: Conjunctiva Palpebral edema [14]: 0.17
- Score of ocular lesions: Conjunctiva Palpebral redness [14]: 0.50
- Score of ocular lesions: Cornea Area [14]: 0
- Score of ocular lesions: Cornea Degree [14]: 0
- Score of ocular lesions: Iris Values [14]: 0.67
- Score of ocular lesions: Total score [14]: 2.34
- Score of ocular lesions: Conjunctiva Bulbar redness [15]: 0.67
- Score of ocular lesions: Conjunctiva Discharge [15]: 0.33
- Score of ocular lesions: Conjunctiva Nictitating membrane [15]: 0.83
- Score of ocular lesions: Conjunctiva Palpebral edema [15]: 0.50
- Score of ocular lesions: Conjunctiva Palpebral redness [15]: 0.50
- Score of ocular lesions: Cornea Area [15]: 0
- Score of ocular lesions: Cornea Degree [15]: 0
- Score of ocular lesions: Iris Values [15]: 1.00
- Score of ocular lesions: Total score [15]: 3.83
- Score of ocular lesions: Conjunctiva Bulbar redness [16]: 2.00
- Score of ocular lesions: Conjunctiva Discharge [16]: 2.33
- Score of ocular lesions: Conjunctiva Nictitating membrane [16]: 1.67
- Score of ocular lesions: Conjunctiva Palpebral edema [16]: 3.33
- Score of ocular lesions: Conjunctiva Palpebral redness [16]: 2.33
- Score of ocular lesions: Cornea Area [16]: 0
- Score of ocular lesions: Cornea Degree [16]: 0
- Score of ocular lesions: Iris Values [16]: 1.00
- Score of ocular lesions: Total score [16]: 12.66
- Score of ocular lesions: Conjunctiva Bulbar redness (1.0%, Before instillation): 0
- Score of ocular lesions: Conjunctiva Discharge (1.0%, Before instillation): 0
- Score of ocular lesions: Conjunctiva Nictitating membrane (1.0%, Before instillation): 0
- Score of ocular lesions: Conjunctiva Palpebral edema (1.0%, Before instillation): 0
- Score of ocular lesions: Conjunctiva Palpebral redness (1.0%, Before instillation): 0
- Score of ocular lesions: Cornea Area (1.0%, Before instillation): 0
- Score of ocular lesions: Cornea Degree (1.0%, Before instillation): 0
- Score of ocular lesions: Iris Values (1.0%, Before instillation): 0
- Score of ocular lesions: Total score (1.0%, Before instillation): 0
